Test results reported in patent US4036984A, “Soil fungi inhibiting agent” (Nissan Chemical Industries, Ltd., priority 1974, dated 1977).

Experiments:
[1] = system: Fusarium oxysporum f. cucumerinum; assay: Test 1: control of Fusarium wilt of cucumber (powder, pot test); format: in vivo; details: soil treatment 500 mg (5% powder) and additional irrigation 500 ppm, fourth week of transplanting
Procedure: Test of effect of fungicide on control of Fusarium wilt of cucumber (in case of using powder) Fusarium oxysporum f. cucumerinum which had been cultivated for 1 month at 25° C. on soil-bran medium was air-dried overnight and sifted through a 3mm-mesh sieve. 10g of said culture soil was blended with 600g of sterilized diluvial soil. To 200g of this blended soil were added 1200g of sterilized diluvial soil (containing 2.65 weight % of compost) and 1000mg or 500mg of 5% powder of the invented compound; and these were uniformly mixed in a vat. Next, 1500g of sterilized diluvial soil (containing compost) was placed in a wagner pot of 1/5000 are over which was spread the soil prepared above. Cucumber seedlings of one-leaf stage (variety: "Shimoshirazujibai") which had been cultivated separately in styrol cups in a greenhouse were transplanted into said wagner pot. Each of said cucumber seedlings was singly planted in 200g of the soil placed in said styrol cup and three days before its transplanting, 20 ml of an emulsion of each compound in 300 ppm concentration was irrigated over the soil. In the case of a pot whose soil had been treated with 1000 mg of the compound (5% powder), 14 days after transplanting, 50 ml of an emulsion of the compound in 1000 ppm concentration was additionally irrigated (Test I) and in the case of a pot whose soil had been treated with 500mg of the compound (5% powder), 50 ml of an emulsion of the compound in 500 ppm concentration was additionally irrigated (Test II). The pots were all kept in a greenhouse, and the test was carried out on lots each containing three pots, each pot holding four seedlings.
Every 2 days the withered seedlings were counted and in the fourth week of transplanting, the browning degree of vascular in each seedling was measured; and the effectiveness rating was determined as follows; [formula] (Note)* Fusarium lot is a treated lot containing only Fusarium oxysporum f. cucumerinum.
Sick score is obtained as follows:
Sick score = 3 × a + 2 × b + 1 × c + 0.5 × d + 0 […]
a -- number of withered seedlings b -- number of seedlings in which the browning of vascular has reached the cotyledon part c -- number of seedlings in which the browning of vascular is short of the cotyledon part d -- number of seedlings in which only brown spots have been recognized e -- number of perfectly sound seedlings a + b + c + d + e = 12

[2] = system: Fusarium oxysporum f. cucumerinum; assay: Fungicidal test by agar dilution method (colony diameter); format: cell-based; details: 2.5, 5 and 10 ppm
[3] = system: Fusarium oxysporum f. cucumerinum; assay: as above; format: cell-based; details: for diameter of the colony: 4 days, 25° C., PSA medium; for growth / inhibition of colony compared with the control: 250-1000 ppm
Procedure: Reference -- Fungicidal Test by Agar Dilution Method
100 mg of the invented compound was taken in a 30 ml conical flask, to which a drop of 1:1 mixture of Solpol 2680 (surface-active agent produced by Toho Kagaku) and xylene (about 25 mg), and 1 ml of acetone were added to dissolve therein. On the other hand, 9 ml of sterilized water separately was further added to emulsify, thereby yielding an emulsion of 10,000 ppm concentration. From this emulsion an emulsion of 5,000 ppm and one of 2,500 ppm were prepared through two times dilution.
In a 100 ml conical flask, 3 ml portion each of these emulsions was taken; 27 ml of potato-sucrose-agar (PSA) medium, at 50°-60° C. was added and uniformly blended. Ten ml of the obtained mixture was poured and hardened on a 10 cm-diameter petri dish.
Meanwhile, a colony of Fusarium oxysporum f. cucumerinum separately cultivated on potato-sucrose-agar (PSA) medium was stamped out by a 4mm-diameter cork-borer and inoculated on the above-mentioned mixed medium. After 4 days of cultivation in a chamber of 25° C., the diameter of the colony was measured, the results being summarized in Table 2. A case of the colony not having grown is indicated by the sign (-).

[4] = system: Fusarium oxysporum f. cucumerinum; assay: Test 6: control of Fusarium wilt of cucumber by spraying stalks and leaves; format: in vivo; details: stalks and leaves sprayed with 2000 ppm, third week of transplanting
Procedure: Test of effect of fungicide on control of Fusarium wilt of cucumber, by spraying stalks and leaves with compound.
Fusarium oxysporum f. cucumerinum which had been cultivated for 1 month at 25° C. on soil-bran medium was air-dried overnight and then sifted through a 3mm-mesh sieve.
Next, 1500 g of sterilized diluvial soil (containing compost) was placed in a Wagner pot of 1/5000a, over which the soil prepared above was spread. Cucumber seedlings of one-leaf stage (variety: "Shimoshiraznjibai") which had been separately grown in styrol cups in a greenhouse were transplanted into said Wagner pot. Each of said cucumber seedlings was singly grown in a styrol cup with 200 g of soil. Seven days before it was transplanted, it was sprayed with a 2000 ppm solution of each compound until the stalks and leaves were completely wet.
Just after transplanting and at the end of each week after transplanting, the seedling was sprinkled until completely wet with a 2000 ppm solution of the compound. All the pots were kept in the greenhouse. The test was carried out on lots of three pots each with each pot holding four seedlings.
In the third week of transplanting all the seedlings were checked for the browning of vascular and in the same way as in Test 1.

rats = details: cited from earlier work
[5] = in vivo; cited from earlier work
[6] = system: pests like fleas, mosquitoes etc.; details: cited from earlier work
genus Bacillus = details: 2000 ppm; cited from earlier work
Escherichia coli = details: 2000 ppm; cited from earlier work
[7] = system: Micrococcus pyogenes var. aureus; details: 2000 ppm; cited from earlier work
[8] = system: Fusarium oxysporum f. cucumerinum; assay: Test 2: control of Fusarium wilt of cucumber (emulsion, pot test); format: in vivo; details: emulsion irrigated 300 ppm, then 1000 ppm twice, third week of transplanting
Procedure: Test of effect of fungicide on control of Fusarium wilt of cucumber (in case of using emulsion).
Fusarium oxysporum f. cucumerinum which had been cultivated for 1 month at 25° C. on soil-bran medium was air-dried overnight and then sifted through a 3 mm-mesh sieve. 15g of said culture soil and 600g of sterilized diluvial soil were blended together.
Next, 1500g of sterilized diluvial soil (containing compost) was placed in a Wagner pot of 1/5000 are, over which the soil prepared above was spread. Cucumber seedlings of one-leaf stage (variety: "Shimoshirazujibai") which had been separately cultivated in styrol cups in a greenhouse were transplanted into said Wagner pot. Each of said cucumber seedlings was singly grown in a styrol cup with 200g of soil. Seven days before it was transplanted, 20 ml of an emulsion of each compound in 300 ppm was irrigated over the soil. Just after transplanting and two weeks after transplanting 50 ml of an emulsion of the compound in 1000 ppm was additionally irrigated. All pots were kept in the greenhouse, the test being carried out on lots each containing three pots and each pot holding four seedlings.
In the third week of transplanting all the seedlings were checked for the browning degree of vascular and in the same way as in Test 1, the effectiveness rating and the sick score were determined.

In the case of `CCCCNC(=O)n1c(NC(=O)OC)nc2ccccc21` [Benomyl, methyl-1-(butylcarbamonyl)-2-benzimidazolcarbamate, reference compound], the “Effectiveness Rating II” value [1] is reported as 44 and the “growth of the colony” value [2] is reported as “no growth of the colony was evident”.
With `O=COCCOc1ccccc1` [Compound No. 1] the “diameter of the colony” value ([3]; 250 ppm) was 40 mm, the “diameter of the colony” value ([3]; 500 ppm) was 30 mm and the “diameter of the colony” value ([3]; 1000 ppm) was 10 mm.
For `CC(=O)OCCOc1ccccc1` [Compound No. 2], the “diameter of the colony” value ([3]; 250 ppm) was 37 mm, the “diameter of the colony” value ([3]; 500 ppm) was 26 mm and the “Effectiveness Rating II” value [1] was 80. The “Effectiveness Rating, 2000 ppm” value [4] was 67, the “LD50, acute oral toxicity” value (rats) was 4900 mg/kg and the “skin cancer” value [5] was “not likely to cause skin cancer”. For the same compound, the “repellency” value [6] was “feebly repellant”.
For `CCC(=O)OCCOc1ccccc1` [Compound No. 3], the “diameter of the colony” value ([3]; 250 ppm) was 25 mm, the “diameter of the colony” value ([3]; 500 ppm) was 20 mm and the “diameter of the colony” value ([3]; 1000 ppm) was 9 mm. For the same compound, the “Effectiveness Rating II” value [1] was 32.
For `CCCC(=O)OCCOc1ccccc1` [Compound No. 4], the “diameter of the colony” value ([3]; 250 ppm) was 32 mm, the “diameter of the colony” value ([3]; 500 ppm) was 27 mm and the “diameter of the colony” value ([3]; 1000 ppm) was 22 mm. The “Effectiveness Rating II” value [1] was 30.
In the case of `CC(C)C(=O)OCCOc1ccccc1` [Compound No. 5], the “diameter of the colony” value ([3]; 250 ppm) is reported as 30 mm, the “diameter of the colony” value ([3]; 500 ppm) is reported as 23 mm and the “diameter of the colony” value ([3]; 1000 ppm) is reported as 17 mm. The “bactericidal effect” value (genus Bacillus) was “non-bactericidal”, the “bactericidal effect” value (Escherichia coli) was “non-bactericidal” and the “bactericidal effect” value [7] was “non-bactericidal”.
With `CCCCC(=O)OCCOc1ccccc1` [Compound No. 6] the “diameter of the colony” value ([3]; 250 ppm) was 31 mm, the “diameter of the colony” value ([3]; 500 ppm) was 26 mm and the “diameter of the colony” value ([3]; 1000 ppm) was 22 mm.
With `CCC(C)C(=O)OCCOc1ccccc1` (stereo not shown) [Compound No. 7] the “diameter of the colony” value ([3]; 250 ppm) was 25 mm, the “diameter of the colony” value ([3]; 500 ppm) was 23 mm and the “diameter of the colony” value ([3]; 1000 ppm) was 16 mm.
With `CC(C)CC(=O)OCCOc1ccccc1` [Compound No. 8] the “diameter of the colony” value ([3]; 250 ppm) was 24 mm, the “diameter of the colony” value ([3]; 500 ppm) was 19 mm and the “diameter of the colony” value ([3]; 1000 ppm) was 15 mm. For the same compound, the “Effectiveness Rating II” value [1] was 50.
For `C=CC(=O)OCCOc1ccccc1` [Compound No. 23, β-phenoxyethylacrylate], the “Effectiveness Rating, 2000 ppm” value [4] was 30.
With `CC(C)C(=O)C(=O)OCCOc1ccccc1` [Compound No. 45, β-phenoxyethyl 2-oxo-3-methyl-butanoate] the “Effectiveness Rating, 2000 ppm” value [4] was 76.
In the case of `CSCC(=O)OCCOc1ccccc1` [Compound No. 67, β-phenoxyethyl S-methylglycolate], the “Effectiveness Rating” value [8] is reported as 89.
In the case of `CCCCCC(=O)OCCOc1ccccc1` [compound 9], the “diameter of the colony” value ([3]; 250 ppm) is reported as 33 mm, the “diameter of the colony” value ([3]; 500 ppm) is reported as 30 mm and the “diameter of the colony” value ([3]; 1000 ppm) is reported as 22 mm.
In the case of `CCCCCCC(=O)OCCOc1ccccc1` [compound 10], the “diameter of the colony” value ([3]; 250 ppm) is reported as 33 mm, the “diameter of the colony” value ([3]; 500 ppm) is reported as 28 mm and the “diameter of the colony” value ([3]; 1000 ppm) is reported as 24 mm.
For `CCCCCCCC(=O)OCCOc1ccccc1` [compound 11], the “diameter of the colony” value ([3]; 250 ppm) was 36 mm, the “diameter of the colony” value ([3]; 500 ppm) was 32 mm and the “diameter of the colony” value ([3]; 1000 ppm) was 29 mm.
For `CCCCCCCCCC(=O)OCCOc1ccccc1` [compound 12], the “growth / inhibition of colony compared with the control” value [3] was “same growth as the control”, the “diameter of the colony” value ([3]; 250 ppm) was 46 mm and the “diameter of the colony” value ([3]; 500 ppm) was 41 mm. For the same compound, the “diameter of the colony” value ([3]; 1000 ppm) was 38 mm.
For `CCCCCCCCCCCC(=O)OCCOc1ccccc1` [compound 13], the “growth / inhibition of colony compared with the control” value [3] was “same growth as the control”, the “diameter of the colony” value ([3]; 250 ppm) was 49 mm and the “diameter of the colony” value ([3]; 500 ppm) was 45 mm. For the same compound, the “diameter of the colony” value ([3]; 1000 ppm) was 40 mm.
For `CC(CC(=O)OCCOc1ccccc1)CC(C)(C)C` (stereo not shown) [compound 14], the “diameter of the colony” value ([3]; 250 ppm) was 38 mm, the “diameter of the colony” value ([3]; 500 ppm) was 38 mm and the “diameter of the colony” value ([3]; 1000 ppm) was 35 mm.
For `CC(C)(C)C(=O)OCCOc1ccccc1` [compound 15], the “diameter of the colony” value ([3]; 250 ppm) was 19 mm, the “diameter of the colony” value ([3]; 500 ppm) was 17 mm and the “diameter of the colony” value ([3]; 1000 ppm) was 13 mm.
With `CC(C)(O)CC(=O)OCCOc1ccccc1` [compound 37] the “Effectiveness Rating, 2000 ppm” value [4] was 40.
With `CC(C)=CC(=O)OCCSc1ccccc1` [compound 74] the “Effectiveness Rating, 2000 ppm” value [4] was 62.
